US4533664A, “Antithrombotic N-(6-chloro-pyrazin-2-yl)-4-Hydroxy-2H-1,2-benzothiazine-3-carboxamide-1 ,1-dioxide derivatives, composition, and method of use” (Dr. Karl Thomae Gesellschaft mit beschrankter Haftung, priority 1982, dated 1985)
Where a name gives a salt, the structure may show the parent alone. Read-outs that look alike come from different tables or passages of the source.

Legend:
stomach of the rat = test: ulcerogenic effect on the stomach of the rat; assay type: in vivo
rat = test: edema test (antiphlogistic effect); assay type: in vivo; settings: for powerful antiphlogistic effect, dose range: p.o. in the rat (edema test)
mice = test: Determination of acute toxicity; assay type: in vivo
Procedure: (§1) (d) Determination of acute toxicity
(§2) The acute toxicity was determined after oral administration to male and female mice. The compounds were administered as a suspension in tylose.
(§3) The following table indicates the number of animals which died within 1, 7 and 14 days after receiving the doses stated: […]

bleeding time in mice = test: Determination of the bleeding time in mice (method of DUKE); assay type: in vivo, mouse (NMRI Biberach)
Procedure: (c) Determination of the bleeding time in mice
The bleeding time was measured on unanesthetized female mice weighing from 20 to 25 g by the method of DUKE (J. Amer. Med. Assoc.) 15, 1187, 1910). About 0.5 mm of the tip of the animals' tail was cut off, and the blood escaping was carefully wiped away with a strip of filter paper at 30 second intervals. The number of drops of blood thus obtained provided a measurement of the bleeding time. The normal bleeding time in mice is 4.1 minutes on average.
Strain of animals: NMRI Biberach
Number of animals per test: 5
The test compound was administered by esophageal tube one hour before the measurement.

[1] = system: collagen-induced thrombocyte aggregation; test: Born test, collagen-induced aggregation (platelet-rich plasma); assay type: cell-based, human (healthy test subjects); settings: for inhibition at 10 µM: 10^-5 Mol/l; for inhibition at 1 µM: 10^-6 Mol/l
Procedure: The compounds were tested for their inhibiting effects in blood platelet aggregation induced by collagen and their effect of prolonging the bleeding time in mice. The compounds were also tested for their acute toxicity.
(a) Born test, collagen-induced aggregation
The thrombocyte aggregation was measured on platelet-rich plasma from healthy test subjects using the method of BORN and CROSS (J. Physiol. 170, 397 [1964]). The decrease in optical density of the platelet suspensions after the addition of collagen was measured photometrically and recorded. The rate of aggregation was deduced from the angle of inclination of the density curve. The point on the curve at which there is maximum light transmittance was used to calculate the "optical density". The quantity of collagen was selected so as to obtain an irreversible control curve.
The figures given refer to the optical density and indicate the percentage change in light transmittance (=% attenuation of aggregation) under the effect of the test substance, compared with the control.
Standard commercial collagen made by Hormon-Chemie of Munich was used.

[2] = system: collagen-induced aggregation (platelet-rich plasma); test: Born test, rat ex vivo, collagen-induced aggregation; assay type: in vivo; settings: 1 hour after administration, optical density
Procedure: (b) Born test, rat ex vivo, collagen-induced aggregation
The following forms were tested:
The test compound was administered by esophageal tube in the form of an aqueous solution or, in the case of compound A in the form of a tylose suspension, to conscious rats weighing about 450 g. After 1 hour, blood was taken from the abdominal aorta of the animals (which had previously been anesthetized with pentobarbital sodium). The platelet-rich plasma obtained by centrifuging was pooled. The controls were three animals which had not been given any of the test compound. The method of taking blood and preparing the plasma was the same for both groups. The anticoagulant used was 2% sodium citrate in a volume ratio of 1+9.
All the testing was carried out one hour after the administration of the test compound.

[3] = Determination of acute toxicity; assay type: in vivo; settings: mouse, in vivo; oral, mice; printed ">>1000 mg/kg"
Procedure: as §1, §2, §3

[4] = 250 mg/kg oral, of 10 animals (A) or 5 animals (B, Y, Z)
[5] = Homo sapiens, optical density, read-out: BORN test [= % reduction in aggregation]
[6] = Homo sapiens, Table I, read-out: IC50 (50% reduction in aggregation)
[7] = Homo sapiens, as stated in text on Table I, read-out: concentration giving a 50% reduction in aggregation
[8] = 1000 mg/kg oral, of 10 animals (A) or 5 animals (B)

Compound | ulcerogenic effect (stomach of the rat) | Animals which died during the observation period, 1 day (mice; [4]) | Animals which died during the observation period, 7 days (mice; [4]) | Animals which died during the observation period, 14 days (mice; [4]) | inhibition at 10 µM [1, 5] [%] | IC50 [1, 6] [µM] | percentage inhibition of aggregation ([2]; 0.0125 mg/kg p.o.) [%] | percentage inhibition of aggregation ([2]; 0.025 mg/kg p.o.) [%] | percentage inhibition of aggregation ([2]; 0.05 mg/kg p.o.) [%] | other results
CN1C(C(=O)Nc2cnccn2)=C(O)c2ccccc2S1(=O)=O [Z, 4-hydroxy-2-methyl-N-(2-pyrazinyl)-2H-1,2-benzothiazine-3-carboxamide-1,1-dioxide] | strong ulcerogenic effect | 1 | 4 | 4 | 15 | > 10 | – | – | – | powerful antiphlogistic effect, dose range (rat): 1 to 5 mg/kg; Prolongation of bleeding time (bleeding time in mice; 10 mg/kg by esophageal tube, one hour before the measurement): +62%; IC50 [1, 7]: > 10 µM
CN1C(C(=O)Nc2cncc(Cl)n2)=C(O)c2ccccc2S1(=O)=O [D, Tetramethylammonium salt of N-(6-chloro-pyrazin-2-yl)-4-hydroxy-2-methyl-2H-1,2-benzothiazine-3-carboxamide-1,1-dioxide] | – | – | – | – | – | – | 27 | 20 | 97 | –
CN1C(C(=O)Nc2cncc(Cl)n2)=C(O)c2ccccc2S1(=O)=O [Compound A, N-(6-Chloro-pyrazin-2-yl)-4-hydroxy-2-methyl-2H-1,2-benzothiazine-3-carboxamide-1,1-dioxide] | no ulcerogenic effect up to 100 mg/kg | 0 | 0 | 0 | 95 | 0.47 | – | – | – | percentage inhibition of aggregation ([2]; 0.125 mg/kg p.o.): 14%; inhibition at 0.25 mg/kg ([2]; Rattus norvegicus, po, 1 h, 0.25 mg/kg p.o., read-out: percentage inhibition of aggregation): 93%; inhibition at 0.5 mg/kg ([2]; Rattus norvegicus, po, 1 h, 0.5 mg/kg p.o., read-out: percentage inhibition of aggregation): 86%; ED35 (rat; Rattus norvegicus, po, edema test): > 200 mg/kg; antiphlogistic effect (rat; edema test): no antiphlogistic effect; LD50 at 336 h [3]: > 1000 mg/kg; Animals which died during the observation period, 1 day (mice; [8]): 0; Animals which died during the observation period, 7 days (mice; [8]): 0; Animals which died during the observation period, 14 days (mice; [8]): 0; inhibition at 1 µM [1, 5]: 71%; inhibition at 0.1 µM ([1]; Homo sapiens, 10^-7 Mol/l, optical density, read-out: BORN test [= % reduction in aggregation]): 6%; concentration leading to a 50% reduction compared with prior art compounds Y and Z ([1]; comparison with Y and Z): about one tenth power lower
CN1C(C(=O)Nc2cncc(Cl)n2)=C(O)c2ccccc2S1(=O)=O [E, Ethanolamine salt of N-(6-chloropyrazin-2-yl)-4-hydroxy-2-methyl-2H-1,2-benzothiazine-3-carboxamide-1,1-dioxide] | – | – | – | – | – | – | 10 | 53 | 87 | –
CN1C(C(=O)Nc2cncc(Cl)n2)=C(O)c2ccccc2S1(=O)=O [G, Ammonium salt of N-(6-chloro-pyrazin-2-yl)-4-hydroxy-2-methyl-2H-1,2-benzothiazine-3-carboxamide-1,1-dioxide] | – | – | – | – | – | – | 7 | 36 | 92 | –
CN1C(C(=O)Nc2cncc(Cl)n2)=C(O)c2ccccc2S1(=O)=O [Compound B, Potassium salt of N-(6-chloro-pyrazin-2-yl)-4-hydroxy-2-methyl-2H-1,2-benzothiazine-3-carboxamide-1,1-dioxide] | – | 0 | 0 | 0 | – | – | 26 | 86 | 100 | Animals which died during the observation period, 1 day (mice; [8]): 0; Animals which died during the observation period, 7 days (mice; [8]): 1; Animals which died during the observation period, 14 days (mice; [8]): 1
CN1C(C(=O)Nc2ccccn2)=C(O)c2ccccc2S1(=O)=O [Y, 4-hydroxy-2-methyl-N-(2-pyridyl)-2H-1,2-benzothiazine-3-carboxamide-1,1-dioxide] | strong ulcerogenic effect | 0 | 3 | 3 | 85 | 2 | – | – | – | powerful antiphlogistic effect, dose range (rat): 1 to 5 mg/kg; side effects (bleeding time in mice; 10 mg/kg): already show side effects; inhibition at 1 µM [1, 5]: 39%; IC50 [1, 7]: 2 µM
CN1C(C(=O)Nc2cncc(Cl)n2)=C(O)c2ccccc2S1(=O)=O [C, Sodium salt of N-(6-chloro-pyrazin-2-yl)-4-hydroxy-2-methyl-2H-1,2-benzothiazine-3-carboxamide-1,1-dioxide] | – | – | – | – | – | – | 0 | 32 | 96 | percentage inhibition of aggregation ([2]; 0.125 mg/kg p.o.): 100%; percentage inhibition of aggregation ([2]; 0.25 mg/kg p.o.): 100%; percentage inhibition of aggregation ([2]; 0.5 mg/kg p.o.): 100%
CN1C(C(=O)Nc2cncc(Cl)n2)=C(O)c2ccccc2S1(=O)=O [F, Calcium salt of N-(6-chloro-pyrazin-2-yl)-4-hydroxy-2-methyl-2H-1,2-benzothiazine-3-carboxamide-1,1-dioxide] | – | – | – | – | – | – | 27 | 64 | 77 | –
